Patent publication US20250228759A1, “ANTI-AGING COSMETIC COMPOSITIONS COMPRISING XANTHOMMATIN” (SEASPIRE, INC., priority 2021, published 2025)

Test system: NativeSkin® human skin tissues
Assay: Gene expression assay (Genemarkers Standard Skin Panel, qPCR) in ex vivo skin
Type: cell-based
Conditions: 24 hrs, N=4
Description: This study was conducted to determine how different concentrations (0.316 μM-10.0 mM) of xanthommatin influences gene expression in ex vivo NativeSkin® human skin tissues (purchased from Genoskin). NativeSkin® human skin models hold normal skin barrier function, a mature stratum corneum, a functional basal layer and all cell types and skin appendages of in vivo human skin.
Gene expression was assessed using Genemarkers Standard Skin Panel, a qPCR-based gene expression panel which contains 107 target genes potentially relevant in skin biology and 5 endogenous control genes. Gene expression was assessed 24 hrs following application of the test material to the skin tissues.
Formulation design. A gel containing either 0.1% or 0.4% (Table 1) by mass percentage of ammonium xanthommatin (Xa) was prepared. Phase A was initiated by adding 0.3 wt % of carbomer into the water without stirring. Next, the solution was heated to 75° C. with mixing to allow the carbomer to disperse throughout the mixture before ammonium xanthommatin was slowly added and allowed to mix for full dissolution. In a separate reaction vessel, Phase B was created with glycerin (3.5%) and phenoxyethanol (0.95%) and mixed well. Phase B was then added to Phase A. The final phase (Phase C), containing 4% deionized water and 0.4% sodium hydroxide, was added to the main phase for neutralization. The gel was then cooled to room temperature.
Tissue equilibration. Native tissues (Genoskin) were equilibrated overnight at 37° C. with 5% CO2 and ˜95% relative humidity. The following day, the equilibrium medium was removed from each well and replaced with 1.0 mL of maintenance medium.
Treatment Media. Tissues were obtained from the abdomen of a person with Fitzpatrick type 2-3 skin. Genoskin facilities mounted 11 mm biopsies into Nativeskin tissue inserts which were used for genetic analysis 5 days later. N=4 biological replicates per treatment group. For WST-8 (−) control tissue (N=2), 10 μL of Triton X-100 (1%) was applied to the surface of the tissue; two untreated tissues served as the WST-8 control.
Tissue and medium collections. A 2 mm biopsy punch was taken from the center for the WST-8 assay. Remaining tissues were placed in a tube containing RNAlater preservative solutions. Tissues were incubated for 1-2 hrs until RNA was isolated. RNA was isolated using an RNeasy Mini kit (Qiagen) following the manufacturer's instructions. Each sample was vacuum concentrated to at least 200 ng/μL to provide sufficient amount of RNA for cDNA synthesis. RNA concentration and purity were determined using a Nanodrop 2000 spectrophotometer.
cDNA was generated using a High Capacity cDNA Synthesis Kit (Applied Biosystems) and was generated from 2000 ng RNA per sample for OpenArray processing. qPCR data quality and statistical analysis was assessed and performed on the raw data files using ThermoFisher Connect Software (Life Technologies). Statistical analysis was performed using the relative quantitation (RQ) method, where the Cq value of the target gene is normalized to the Cq value of an endogenous control gene (selected from one of GAPDH, GUSB, HPRT1, PPIA, and UBC) to generate the delta Cq values, which were used to normalize variability between the samples.
Statistical analysis. Unpaired t-tests were carried out using the ThermoFisher Connect software.

For `NC(CC(=O)c1cccc2oc3cc(=O)c4[nH]c(C(=O)O)cc(=O)c4c-3nc12)C(=O)O` (stereo not drawn) [ammonium xanthommatin], the “HAS2 (Hyaluronan synthase 2) gene expression, % Change” value (3.16 mM (0.1%) dose group) was 74%, the “HAS2 (Hyaluronan synthase 2) gene expression, FC (linear fold change)” value (3.16 mM (0.1%) dose group) was 1.74 and the “HAS2 (Hyaluronan synthase 2) gene expression, Rq” value (3.16 mM (0.1%) dose group) was 1.74. For the same compound, the “COL1A1 (collagen) gene expression, % Change” value (10 mM (0.4%) dose group) was 153%, the “COL1A1 (collagen) gene expression, FC (linear fold change)” value (10 mM (0.4%) dose group) was 2.53 and the “COL1A1 (collagen) gene expression, Rq” value (10 mM (0.4%) dose group) was 2.525. The “COL3A1 (collagen) gene expression, % Change” value (10 mM (0.4%) dose group) was 137%, the “COL3A1 (collagen) gene expression, FC (linear fold change)” value (10 mM (0.4%) dose group) was 2.37 and the “COL3A1 (collagen) gene expression, Rq” value (10 mM (0.4%) dose group) was 2.37. The “FOXO3 (subclass of the forkhead family of transcription factors) gene expression, % Change” value (10 mM (0.4%) dose group) was 114%, the “FOXO3 (subclass of the forkhead family of transcription factors) gene expression, FC (linear fold change)” value (10 mM (0.4%) dose group) was 2.14 and the “FOXO3 (subclass of the forkhead family of transcription factors) gene expression, Rq” value (10 mM (0.4%) dose group) was 2.142. For the same compound, the “HSPG2 (Heparan Sulfate Proteoglycan 2) gene expression, % Change” value (10 mM (0.4%) dose group) was 48%, the “HSPG2 (Heparan Sulfate Proteoglycan 2) gene expression, FC (linear fold change)” value (10 mM (0.4%) dose group) was 1.48 and the “HSPG2 (Heparan Sulfate Proteoglycan 2) gene expression, Rq” value (10 mM (0.4%) dose group) was 1.477. The “IGF1R (insulin-like growth factor 1) gene expression, % Change” value (10 mM (0.4%) dose group) was 26%, the “IGF1R (insulin-like growth factor 1) gene expression, FC (linear fold change)” value (10 mM (0.4%) dose group) was 1.26 and the “IGF1R (insulin-like growth factor 1) gene expression, Rq” value (10 mM (0.4%) dose group) was 1.257. For the same compound, the “ITGB4 (Integrin alpha-6/beta-4 is a receptor for laminin) gene expression, % Change” value (10 mM (0.4%) dose group) was 58%, the “ITGB4 (Integrin alpha-6/beta-4 is a receptor for laminin) gene expression, FC (linear fold change)” value (10 mM (0.4%) dose group) was 1.58 and the “ITGB4 (Integrin alpha-6/beta-4 is a receptor for laminin) gene expression, Rq” value (10 mM (0.4%) dose group) was 1.582. For the same compound, the “KRT14 (keratin 14) gene expression, % Change” value (10 mM (0.4%) dose group) was 72%, the “KRT14 (keratin 14) gene expression, FC (linear fold change)” value (10 mM (0.4%) dose group) was 1.72 and the “KRT14 (keratin 14) gene expression, Rq” value (10 mM (0.4%) dose group) was 1.721. For the same compound, the “MFN2 (mitofusin 2) gene expression, % Change” value (10 mM (0.4%) dose group) was 45%, the “MFN2 (mitofusin 2) gene expression, FC (linear fold change)” value (10 mM (0.4%) dose group) was 1.45 and the “MFN2 (mitofusin 2) gene expression, Rq” value (10 mM (0.4%) dose group) was 1.447. The “POLG1/MDP1 (DNA Polymerase Gamma) gene expression, % Change” value (10 mM (0.4%) dose group) was 71%, the “POLG1/MDP1 (DNA Polymerase Gamma) gene expression, FC (linear fold change)” value (10 mM (0.4%) dose group) was 1.71 and the “POLG1/MDP1 (DNA Polymerase Gamma) gene expression, Rq” value (10 mM (0.4%) dose group) was 1.713. For the same compound, the “ST14 (Suppressor of tumorigenicity 14 protein) gene expression, % Change” value (10 mM (0.4%) dose group) was 39%, the “ST14 (Suppressor of tumorigenicity 14 protein) gene expression, FC (linear fold change)” value (10 mM (0.4%) dose group) was 1.39 and the “ST14 (Suppressor of tumorigenicity 14 protein) gene expression, Rq” value (10 mM (0.4%) dose group) was 1.385.
